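Where inhibition never reached the appropriate level, the endpoint shown equals the highest concentration tested. Otherwise, values were interpolated linearly from a five-concentration, 48-hour dose response in 96-well plates. Abbreviation: GI50, concentration required for 50% inhibition of growth.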 Active and inactive are the calls of the source. No stated cut-off is given here; in the data, active = GI50 up to about 1.1 µM and inactive = higher.
What was measured:
Assay in all cases: inhibition of tumour cell growth, NCI panel, 48 h
[1] = tested on: OVCAR-3
[2] = tested on: MDA-MB-231
[3] = tested on: DU-145
[4] = tested on: MDA-N
[5] = tested on: COLO 205
[6] = tested on: NCI-H522
[7] = tested on: NCI-H226
[8] = tested on: SR
[9] = tested on: SK-OV-3
[10] = tested on: RXF 393
[11] = tested on: SK-MEL-5
[12] = tested on: UACC-257
[13] = tested on: NCI-H23
[14] = tested on: BT-549
[15] = tested on: HOP-92
[16] = tested on: UACC-62
[17] = tested on: SN12C
[18] = tested on: KM12
[19] = tested on: SK-MEL-28
[20] = tested on: M14
[21] = tested on: SK-MEL-2
[22] = tested on: HOP-62
[23] = tested on: SF-539
[24] = tested on: HCT-116
[25] = tested on: OVCAR-5
[26] = tested on: SNB-75
[27] = tested on: CAKI-1
[28] = tested on: MDA-MB-435
[29] = tested on: OVCAR-8
[30] = tested on: ACHN
[31] = tested on: Hs-578T
[32] = tested on: K562
[33] = tested on: U-251
[34] = tested on: MCF7
[35] = tested on: PC-3
[36] = tested on: SW-620
[37] = tested on: MOLT-4
[38] = tested on: LOX IMVI
[39] = tested on: CCRF-CEM
[40] = tested on: SF-295
[41] = tested on: Malme-3M
[42] = tested on: EKVX
[43] = tested on: HCT-15
[44] = tested on: OVCAR-4
[45] = tested on: IGROV-1
[46] = tested on: HL-60
[47] = tested on: SNB-19
[48] = tested on: 786-0
[49] = tested on: A549
[50] = tested on: SF-268
[51] = tested on: HCC 2998
[52] = tested on: NCI/ADR-RES
[53] = tested on: A498
[54] = tested on: NCI-H460
[55] = tested on: TK-10
[56] = tested on: RPMI-8226
[57] = tested on: HT-29

In the case of `COc1cc(OC)c2c(=O)c3cccc(C)c3n(C)c2c1`, the GI50 [1] is reported as 74.8 µM (inactive), the GI50 [2] is reported as > 100 µM (inactive) and the GI50 [3] is reported as 57.3 µM (inactive). For the same molecule, the GI50 [4] was 16.6 µM (inactive), the GI50 [5] was 67 µM (inactive) and the GI50 [6] was > 100 µM (inactive). For the same molecule, the GI50 [7] was > 100 µM (inactive), the GI50 [8] was 37 µM (inactive) and the GI50 [9] was > 100 µM (inactive). The GI50 [10] was > 100 µM (inactive), the GI50 [11] was 22.4 µM (inactive) and the GI50 [12] was 43.5 µM (inactive). For the same molecule, the GI50 [13] was > 100 µM (inactive), the GI50 [14] was > 100 µM (inactive) and the GI50 [15] was 83.6 µM (inactive). For the same molecule, the GI50 [16] was 61.4 µM (inactive), the GI50 [17] was > 100 µM (inactive) and the GI50 [18] was 80 µM (inactive). The GI50 [19] was 50.1 µM (inactive), the GI50 [20] was 44 µM (inactive) and the GI50 [21] was 76.7 µM (inactive). For the same molecule, the GI50 [22] was > 100 µM (inactive), the GI50 [23] was 68.5 µM (inactive) and the GI50 [24] was 48.3 µM (inactive). For the same molecule, the GI50 [25] was > 100 µM (inactive), the GI50 [26] was 61.5 µM (inactive) and the GI50 [27] was > 100 µM (inactive). The GI50 [28] was 50.7 µM (inactive), the GI50 [29] was 64.7 µM (inactive) and the GI50 [30] was 51.3 µM (inactive). For the same molecule, the GI50 [31] was 58.7 µM (inactive), the GI50 [32] was 25.8 µM (inactive) and the GI50 [33] was 84.3 µM (inactive). The GI50 [34] was 34 µM (inactive), the GI50 [35] was 50.9 µM (inactive) and the GI50 [36] was > 100 µM (inactive). For the same molecule, the GI50 [37] was 52.4 µM (inactive), the GI50 [38] was 55.7 µM (inactive) and the GI50 [39] was 36.3 µM (inactive). The GI50 [40] was 57.7 µM (inactive), the GI50 [41] was 98.2 µM (inactive) and the GI50 [42] was > 100 µM (inactive). The GI50 [43] was > 100 µM, the GI50 [44] was 64 µM (inactive) and the GI50 [45] was > 100 µM (inactive). For the same molecule, the GI50 [46] was 30.5 µM (inactive), the GI50 [47] was > 100 µM (inactive) and the GI50 [48] was > 100 µM (inactive). For the same molecule, the GI50 [49] was 83.2 µM (inactive), the GI50 [50] was 72.6 µM (inactive) and the GI50 [51] was > 100 µM (inactive). For the same molecule, the GI50 [52] was 64.1 µM (inactive), the GI50 [53] was > 100 µM (inactive) and the GI50 [54] was 94 µM (inactive). The GI50 [55] was > 100 µM (inactive), the GI50 [56] was 17.9 µM (inactive) and the GI50 [57] was 27.9 µM (inactive).

From ChEMBL document CHEMBL1201862, “PubChem BioAssay data set” (2004)
